The record followed here is patent publication US12077503B2, “Substituted cyclic amides and their use as herbicides” (FMC CORPORATION, priority 2015, dated 2024).

One data set deals with Kochia (Kochia scoparia). The data set can be described thus: Test A preemergence. Conditions: Bassia scoparia, pre-emergence, 240 h, preemergence, read-out: Kochia plant response rating; for pest or weed control at 125 g/ha: 125 g ai/ha, approx. 10 d; for pest or weed control at 500 g/ha: 500 g ai/ha. Format: in vivo. Summed up:
(§1)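 Seeds sprayed preemergence with a directed soil spray, or plants at 2 to 10 cm height and one- to two-leaf stage sprayed postemergence, with test chemicals in a non-phytotoxic solvent mixture containing surfactant, in loam soil–sand blend. Injury rated visually against untreated controls after about 10 d in greenhouse, 0 (no effect) to 100 (complete control).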

The subject of data set [1] is barnyardgrass (Echinochloa crus-galli). As to the kind of experiment: Test A preemergence. Format: in vivo. The following applies: Echinochloa crus-galli, pre-emergence, 240 h; for pest or weed control at 125 g/ha: 125 g ai/ha; for pest or weed control at 500 g/ha: 500 g ai/ha. Summed up:
as §1

Data set [2] deals with pigweed (Amaranthus retroflexus). The data set can be described thus: Test A preemergence. The format is in vivo. Conditions: Amaranthus retroflexus, pre-emergence, 240 h, preemergence, read-out: Pigweed plant response rating; for pest or weed control at 125 g/ha: 125 g ai/ha, approx. 10 d; for pest or weed control at 500 g/ha: 500 g ai/ha.
Data set [3] deals with ragweed (common ragweed, Ambrosia elatior). The data set can be described thus: Test A preemergence. The format is in vivo. Conditions: Ambrosia artemisiifolia, pre-emergence, 240 h, preemergence, read-out: Ragweed plant response rating; for pest or weed control at 125 g/ha: 125 g ai/ha, approx. 10 d; for pest or weed control at 500 g/ha: 500 g ai/ha. The procedure, abridged:
as §1

The subject of data set [4] is ryegrass, Italian (Italian ryegrass, Lolium multiflorum). As to the kind of experiment: Test A preemergence. The following applies: Lolium multiflorum, pre-emergence, 240 h, preemergence, read-out: Ryegrass, Italian plant response rating; for pest or weed control at 125 g/ha: 125 g ai/ha, approx. 10 d; for pest or weed control at 500 g/ha: 500 g ai/ha. Format: in vivo. Summed up: as §1

[5] abbreviates: 0 to 100 scale where 0 is no effect and 100 is complete control.
Where [6] appears, read: visual injury rating about 10 d after treatment, 0 to 100 scale (0 no effect, 100 complete control).
The mark [7] stands for this setting: preemergence, 0 to 100 scale where 0 is no effect and 100 is complete control, approx. 10 d, read-out: Barnyardgrass plant response rating.
The mark [8] stands for this setting: preemergence, 0 to 100 scale where 0 is no effect and 100 is complete control, read-out: Barnyardgrass plant response rating.

Where two headings read alike, the source gives them in different places.

With `CC(C)=CC1CNC(=O)C1C(=O)Nc1ccccc1S(C)(=O)=O` (stereo not drawn) [Compound 1057], the melting point (as a rule, the temperature of the solid-liquid transition) fell in the range of 159 to 163 °C. The pest or weed control at 125 g/ha in the data set on Kochia (Kochia scoparia) (setting [5]) came out at 0%. Further, in the data set with Kochia (Kochia scoparia) (setting [6]), the pest or weed control at 500 g/ha was determined as 0%. In data set [1] (Preemergence, visual injury rating after approximately 10 d, read-out: Barnyardgrass plant response rating (0 to 100 scale, 0 is no effect, 100 is complete control)), the pest or weed control at 125 g/ha stood at 0%. For the same compound, in data set [1] (preemergence, visual injury rating about 10 d after treatment, 0 to 100 scale (0 no effect, 100 complete control), read-out: Barnyardgrass plant response rating), the pest or weed control at 500 g/ha is 0%. Besides, in data set [2] (setting [5]), the pest or weed control at 125 g/ha was determined as 0%. Also, in data set [2] (setting [6]), the pest or weed control at 500 g/ha turned out to be 0%. Further, in data set [3] (setting [5]), the pest or weed control at 125 g/ha worked out at 0%. In addition, the pest or weed control at 500 g/ha in data set [3] (setting [6]) worked out at 0%. Besides, the pest or weed control at 125 g/ha in data set [4] (setting [5]) is 0%. In data set [4] (setting [6]), the pest or weed control at 500 g/ha is 0%.

`O=C1NC[C@H](c2cccc(I)c2)[C@H]1C(=O)Nc1ccccc1F` [Compound 1160] displayed a melting point of 161 to 164 °C. For the same compound, in the data set with Kochia (Kochia scoparia) (setting [5]), the pest or weed control at 125 g/ha turned out to be 0% and the pest or weed control at 500 g/ha was found to be 50%. Also, in data set [1] (setting [7]), the pest or weed control at 125 g/ha was 90%. Besides, the pest or weed control at 500 g/ha in data set [1] (setting [8]) is 90%. Moreover, in data set [2] (setting [5]), the pest or weed control at 125 g/ha turned out to be 0% and the pest or weed control at 500 g/ha is 20%. Moreover, in data set [3] (setting [5]), the pest or weed control at 125 g/ha was determined as 0% and the pest or weed control at 500 g/ha turned out to be 0%. Besides, in data set [4] (setting [5]), the pest or weed control at 125 g/ha is 0% and the pest or weed control at 500 g/ha was found to be 0%.

Take `O=C1NC[C@H](c2nccs2)[C@H]1C(=O)Nc1ccccc1F` [Compound 1181]: the melting point was 123 to 127.7 °C. Besides, in the data set with Kochia (Kochia scoparia) (setting [5]), the pest or weed control at 125 g/ha was 0% and the pest or weed control at 500 g/ha was found to be 0%. The pest or weed control at 125 g/ha in data set [1] (setting [7]) is 0%. In addition, the pest or weed control at 500 g/ha in data set [1] (setting [8]) was found to be 0%. For the same compound, in data set [2] (setting [5]), the pest or weed control at 125 g/ha stood at 0% and the pest or weed control at 500 g/ha came out at 0%. In data set [3] (setting [5]), the pest or weed control at 125 g/ha came out at 0% and the pest or weed control at 500 g/ha came to 0%. Moreover, in data set [4] (setting [5]), the pest or weed control at 125 g/ha amounted to 0% and the pest or weed control at 500 g/ha was 0%.
